Data on 30 compounds can be found in US8426429B2, “2-amino-quinazoline derivatives useful as inhibitors of β-secretase (BACE)” (Jansssen Pharmaceutica N.V., priority 2004, dated 2013).

In the assay the target is T1, β-secretase (BACE) (Homo sapiens, UniProt P56817).
T1 construct: purchased Panvera
In words: BACE FS1 % Inhibition Assay. The assay is classed as biochemical. The protocol:
The following reagents were used in this assay: sodium acetate, PEG8000 (Sigma), DMSO, HEPES, FS1 substrate [[…]] […] The FS1-substrate stock solution was prepared in DMSO as a 10 mg/mL solution. The FS1-substrate working solution was prepared by diluting the 10 mg/mL stock solution with substrate assay buffer to a final concentration of 300 μg/mL. The β-secretase (BACE) working solution was prepared by diluting a 0.83 mg/mL BACE stock solution with enzyme assay buffer to a final concentration of 4 μg/mL. Test compounds were dissolved in DMSO to 10 mM. […] The screening procedure for this assay was as follows: 15 μL of BACE working solution was pipetted into each well of a 96-well plate. To each well was then pipetted 2 μL of test compound at the selected concentration. Test compound and BACE were then mixed with a pipettor and incubated for 20 min at room temperature. To each well was then added 10 μL of the FS1 substrate working solution. The plates were then incubated for 1 hour at room temperature. […] The procedure for the blank was as follows. 15 μL of assay buffer was pipetted into each well to be used as a blank control. To each well was then added 2 μL of vehicle and 10 μL of FS1-substrate working solution. The plates were then incubated for 1 hour at room temperature. […] The procedure for the positive control was as follows: 15 μL of BACE working solution was pipetted into each well to be used as a positive control. To each well was then pipetted 2 μL of vehicle. Vehicle and BACE were then mixed with a pipettor and incubated for 20 min at room temperature. To each well was then added 10 μL of the FS1 substrate working solution. The plates were then incubated for 1 hour at room temperature. […] For test compounds, % inhibition was determined at each concentration as follows: [formula]

Where only a bound is given, the exact number is not on record here.

T1 sequence (P56817 46-501): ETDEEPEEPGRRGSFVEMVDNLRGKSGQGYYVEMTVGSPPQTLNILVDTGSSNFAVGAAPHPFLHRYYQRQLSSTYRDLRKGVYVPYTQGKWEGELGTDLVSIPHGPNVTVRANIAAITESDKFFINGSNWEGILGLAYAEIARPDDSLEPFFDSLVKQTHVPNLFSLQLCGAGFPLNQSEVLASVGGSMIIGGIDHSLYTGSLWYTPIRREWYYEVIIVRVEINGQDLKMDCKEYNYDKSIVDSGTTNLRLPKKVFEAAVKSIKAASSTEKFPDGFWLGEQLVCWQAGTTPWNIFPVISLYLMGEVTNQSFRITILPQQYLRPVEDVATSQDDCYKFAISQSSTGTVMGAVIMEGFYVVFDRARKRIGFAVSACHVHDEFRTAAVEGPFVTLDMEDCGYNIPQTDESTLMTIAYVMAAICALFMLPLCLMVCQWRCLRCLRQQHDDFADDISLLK

On to `COc1ccccc1-c1cc2c(cc1F)CN(CCC(=O)NC1C3CC4CC(C3)CC1C4)C(N)=N2` (stereo not drawn) [Compound 620], for which the “% Inhibition (FS)” value (0.3 μM test compound) was less than 30%, the “% Inhibition (FS)” value (1 μM test compound) was less than 30% and the “% Inhibition (FS)” value (3 μM test compound) was found to be 37%.

Take `NC1=Nc2ccc(-c3cnc4ccccc4c3)cc2CN1CCNC(=O)C12CC3CC(CC(C3)C1)C2` [Compound 672]: the “% Inhibition (FS)” value was less than 30% (0.3 μM compound, FS1 substrate); less than 30% (1 μM compound, FS1 substrate); less than 30% (3 μM compound, FS1 substrate).

On to `COc1cccc(OC)c1Oc1ccc2c(c1)CN(Cc1cccc(C(=O)N(C)C3CCCCC3)c1)C(N)=N2` [Compound 477], for which the “% Inhibition (FS)” value reads like this: (0.3 μM test compound) less than 30%; (1 μM test compound) less than 30%; (3 μM test compound) less than 30%.

For the compound `Cc1ccc(Sc2ccc3c(c2)CN(Cc2cccc(C(=O)N(C)C4CCCCC4)c2)C(N)=N3)cc1C` [Compound 408], the “% Inhibition (FS)” value (0.3 μM test compound) is less than 30%, the “% Inhibition (FS)” value (1 μM test compound) was 34% and the “% Inhibition (FS)” value (3 μM test compound) is recorded as 95%.

As for `CC(C)(C)C(=O)NCCN1Cc2cc(-c3ccc4ccccc4c3)ccc2N=C1N` [Compound 667], the “% Inhibition (FS)” value reads like this: (0.3 μM compound, FS1 substrate) 33%; (1 μM compound, FS1 substrate) less than 30%; (3 μM compound, FS1 substrate) less than 30%.

In the case of `CN(C(=O)CCC(C1CCCCC1)N1Cc2cc(Oc3ccccc3)ccc2N=C1N)C1(C(=O)O)CCCCC1` (stereo not drawn) [Compound 741], the “% Inhibition (FS)” value is −48% (0.3 μM compound, FS1 substrate); −38% (1 μM compound, FS1 substrate); −25% (3 μM compound, FS1 substrate).

Regarding `CCCCC(CC)CN(CC(CC)CCCC)C(=O)c1cccc(CN2Cc3cc(Oc4ccccc4)ccc3N=C2N)c1` (stereo not drawn) [Compound 198], the “% Inhibition (FS)” value (0.3 μM test compound) was less than 30%, the “% Inhibition (FS)” value (1 μM test compound) was less than 30% and the “% Inhibition (FS)” value (3 μM test compound) is reported as less than 30%.

Regarding `CN(C(=O)c1ncoc1C(Cc1ccccc1)N1Cc2cc(Oc3ccccc3)ccc2N=C1N)C1CCCCC1` (stereo not drawn) [Compound 559], the “% Inhibition (FS)” value is less than 30% (0.3 μM test compound), less than 30% (1 μM test compound) and less than 30% (3 μM test compound).

With `CCCCC(CC)C(=O)NCCN1Cc2cc(-c3ccccc3F)ccc2N=C1N` (stereo not drawn) [Compound 648], the “% Inhibition (FS)” value was found to be 39% (0.3 μM test compound), 74% (1 μM test compound) and 104% (3 μM test compound).

Turning to `CN(C)c1ccc(C(=O)NCCN2Cc3cc(Oc4ccccc4)ccc3N=C2N)cc1` [Compound 189], the “% Inhibition (FS)” value was less than 30% (0.3 μM test compound), less than 30% (1 μM test compound) and less than 30% (3 μM test compound).

For the compound `COc1ccc(F)cc1-c1ccc2c(c1)CN(CCNC(=O)C1CCCCC1)C(N)=N2` [Compound 631], the “% Inhibition (FS)” value (0.3 μM test compound) is less than 30%, the “% Inhibition (FS)” value (1 μM test compound) is recorded as less than 30% and the “% Inhibition (FS)” value (3 μM test compound) amounted to 48%.

Take `CC(C)(C)OC(=O)NCC(c1ccccc1)N1Cc2cc(Oc3ccccc3)ccc2N=C1N` (stereo not drawn) [Compound 258]: the “% Inhibition (FS)” value is, setting by setting: (0.3 μM test compound) less than 30%; (1 μM test compound) 46%; (3 μM test compound) 72%.

In the case of `Cc1ccc(-c2ccc3c(c2)CN(CCNC(=O)C2CCCCC2)C(N)=N3)cc1` [Compound 628], the “% Inhibition (FS)” value is listed as less than 30% (0.3 μM test compound), less than 30% (1 μM test compound) and 32% (3 μM test compound).

In the case of `CCCC(CCCC(=O)NC1CCCCC1)N1Cc2cc(Oc3ccccc3)ccc2N=C1N` (stereo not drawn) [Compound 91], the “% Inhibition (FS)” value is, setting by setting: (3 μM test compound) 68%; (10 μM test compound) 117%.

For the compound `NC1=Nc2ccc(-c3ccccc3)cc2CN1CCNC(=O)CCC(F)(F)F` [Compound 684], the “% Inhibition (FS)” value by setting is: (0.3 μM compound, FS1 substrate) 33%; (1 μM compound, FS1 substrate) 38%; (3 μM compound, FS1 substrate) 78%.

In the case of `COc1cccc(F)c1-c1ccc2c(c1)CN(CCNC(=O)C1CCOCC1)C(N)=N2` [Compound 699], the “% Inhibition (FS)” value (0.3 μM compound, FS1 substrate) was 31%; the “% Inhibition (FS)” value (1 μM compound, FS1 substrate) turned out to be 64%; the “% Inhibition (FS)” value (3 μM compound, FS1 substrate) is 93%.

For `COc1cccc(OC)c1Oc1ccc2c(c1)CN(CCC(=O)NC1C3CC4CC(C3)CC1C4)C(N)=N2` (stereo not drawn) [Compound 465], the “% Inhibition (FS)” value reads like this: (0.3 μM test compound) less than 30%; (1 μM test compound) less than 30%; (3 μM test compound) less than 30%.

`CC(C)C(=O)NCC(C1CCCCC1)N1Cc2cc(Oc3ccccc3)ccc2N=C1N` (stereo not drawn) [Compound 301]: the “% Inhibition (FS)” value (0.3 μM test compound) is given as less than 30%, the “% Inhibition (FS)” value (1 μM test compound) is 82% and the “% Inhibition (FS)” value (3 μM test compound) is recorded as 106%.

For the compound `CCCC(CCC)C(=O)N1CCCCC(N2Cc3cc(Oc4ccccc4)ccc3N=C2N)C1` (stereo not drawn) [Compound 552], the “% Inhibition (FS)” value by setting is: (0.3 μM test compound) less than 30%; (1 μM test compound) less than 30%; (3 μM test compound) 36%.

With `CC(C)Oc1ccc2c(c1)CN(Cc1cccc(C(=O)N(C)C3CCCCC3)c1)C(N)=N2` [Compound 519], the “% Inhibition (FS)” value (0.3 μM test compound) is reported as less than 30%, the “% Inhibition (FS)” value (1 μM test compound) is less than 30% and the “% Inhibition (FS)” value (3 μM test compound) is less than 30%.

Turning to `CC(=O)N1CCC(C(=O)NCCN2Cc3cc(-c4ccccc4Cl)ccc3N=C2N)CC1` [Compound 691], the “% Inhibition (FS)” value (0.3 μM compound, FS1 substrate) was less than 30%; the “% Inhibition (FS)” value (1 μM compound, FS1 substrate) is less than 30%; the “% Inhibition (FS)” value (3 μM compound, FS1 substrate) is recorded as 51%.

Turning to `NC1=Nc2ccc(-c3ccc4ccccc4c3)cc2CN1CCNC(=O)C12CC3CC(CC(C3)C1)C2` [Compound 665], the “% Inhibition (FS)” value is, setting by setting: (0.3 μM compound, FS1 substrate) 35%; (1 μM compound, FS1 substrate) less than 30%; (3 μM compound, FS1 substrate) less than 30%.

As for `COc1ccc(C)cc1Oc1ccc2c(c1)CN(Cc1cccc(C(=O)N(C)C3CCCCC3)c1)C(N)=N2` [Compound 467], the “% Inhibition (FS)” value (0.3 μM test compound) is recorded as less than 30%, the “% Inhibition (FS)” value (1 μM test compound) is listed as less than 30% and the “% Inhibition (FS)” value (3 μM test compound) is reported as less than 30%.

Take `CN(C)c1cccc(Oc2ccc3c(c2)CN(Cc2cccc(C(=O)N(C)C4CCCCC4)c2)C(N)=N3)c1` [Compound 479]: the “% Inhibition (FS)” value (0.3 μM test compound) was less than 30%, the “% Inhibition (FS)” value (1 μM test compound) is less than 30% and the “% Inhibition (FS)” value (3 μM test compound) worked out at 81%.

Take `NC1=Nc2ccc(-c3ccccc3F)cc2CN1CCNC(=O)C1CCC1` [Compound 642]: the “% Inhibition (FS)” value was 37% (0.3 μM test compound), 63% (1 μM test compound) and 96% (3 μM test compound).

In the case of `CC(C)CCC(=O)NCC(Cc1ccc(O)cc1)N1Cc2cc(Oc3ccccc3)ccc2N=C1N` (stereo not drawn) [Compound 615], the “% Inhibition (FS)” value (0.3 μM test compound) is given as less than 30%, the “% Inhibition (FS)” value (1 μM test compound) is reported as less than 30% and the “% Inhibition (FS)” value (3 μM test compound) is given as less than 30%.

Regarding `NC1=Nc2ccc(Oc3ccccc3)cc2CN1CCCCNC(=O)C1CCCC1` [Compound 116], the “% Inhibition (FS)” value is, setting by setting: (3 μM test compound) 39%; (10 μM test compound) 81%.

As to `Cc1ccccc1-c1ccc2c(c1)CN(CCNC(=O)C1CCC(C(F)(F)F)CC1)C(N)=N2` (stereo not drawn) [Compound 694], the “% Inhibition (FS)” value runs as follows: (0.3 μM compound, FS1 substrate) less than 30%; (1 μM compound, FS1 substrate) less than 30%; (3 μM compound, FS1 substrate) 84%.

With `CN(C(=O)CCC(C1CCCCC1)N1Cc2cc(Oc3ccccc3)ccc2N=C1N)C1CCC(C#N)CC1` (stereo not drawn) [Compound 769], the “% Inhibition (FS)” value runs as follows: (0.3 μM compound, FS1 substrate) less than 30%; (1 μM compound, FS1 substrate) 61%.

For `NC1=Nc2ccc(Oc3c(F)cccc3F)cc2CN1CCC(=O)NC1C2CC3CC(C2)CC1C3` (stereo not drawn) [Compound 529], the “% Inhibition (FS)” value by setting is: (0.3 μM test compound) less than 30%; (1 μM test compound) less than 30%; (3 μM test compound) 66%.
